This is an account of results in US5428038A, “Benzopyranones, a method for producing them and uses therefor” (Dr. Willmar Schwabe GmbH & Co., priority 1991, dated 1995).

Where two headings read alike, the source gives them in different places.

As usually defined, the ED50 is the midpoint of the dose-response relation.

Experiment [1] concerns NMDA-induced tonic convulsions. Nature of the experiment: NMDA test (40 mg/kg i.v.), protection against tonic convulsions (antiepileptic efficacy). In kind it is in vivo, male NMRI mice. Particulars: Mus musculus, po; for responders at 25 mg/kg: 25 mg/kg p.o. 1 h before test; for responders at 20 mg/kg: 20 mg/kg p.o. 1 h before test. As for the experimental part: In order to determine the neuroprotective and anticonvulsive activity of the compounds in accordance with the invention of the general formula I, two slightly different methods were employed as follows: […]
1. In order to determine the neuroprotective efficacy NMDA at a rate of 25 mg/kg/10 ml was administered intravenously to male NMRI mice with a body weight of 20 to 25 g. As a consequence of this application the animals suffer clonic and partly tonic convulsions, which lead to death. As a criterion for the efficacy of the investigated compounds prevention of death is used.
2. In order to ascertain the antiepileptic efficacy the same method was utilized with an NMDA dosage of 40 mg/kg/10 ml i.v. This higher NMDA dosage led in the case of all animals to the occurrence of tonic convulsions.
All animals used in the investigations had free access to food and water prior to the experiments. The test and reference substances were all administered as a suspension in 0.2% agar or water, partly by the intermediary of solution promoters such as for instance PEG-400, perorally using an esophageal probe. Control animals received the same volumes of the solvent with optional solution promoters. One hour after the application of the substance NMDA was administered intravenously and the animals observed for the occurrence of convulsions.
In table 2 the results of the tests (NMDA 40 mg i.v.) performed in accordance with method 2 are compiled with dosages of 5-25 mg of the compounds in accordance with the invention per kg of body weight in comparison with known anticonvulsants and antiepileptics. As a percentage efficacy the percentage of animals is used which in the test were protected against the occurrence of tonic convulsions.
The determination of the ED50 values was performed in accordance with the method described in Lichtfield and Wilcoxon, J. Pharmacol. exp. Therapeut. 96, 99 (1949) in each case with 4 to 5 groups of 10 animals per dosage rate.

In experiment [2] the test system is ovalbumin-induced anaphylactic paw edema. Nature of the experiment: Passive rat paw anaphylaxy (inhibition of edema volume; antiallergic and anti-inflammatory). In kind it is in vivo, male Sprague-Dawley rats. Particulars: for inhibition in vivo at 25 mg/kg: 25 mg/kg p.o. 1 h before test, read-out: Protective action (percentage inhibition of edema volume). The method, then:
The determination of the antiallergic and anti-inflammatory properties of the compounds in accordance with the invention was using a passive rat paw anaphylaxy model.
Male Sprague-Dawley rats were utilized for all tests. The animals were kept under standardized environmental conditions with free access to food and water. For sensitization to the antigen 100 μl of a mouse antiserum to ovalbumin was injected sublplantarly into the left rear paw. […] The opposite paw was for control injected subplantarly only with 100 μl of the solvent (sterile physiological NaCl solution). Overnight the investigated animals were deprived of food but had water ad lib.
Per group in all tests between 6 and 8 animals were used. One hour later the anaphylactic reaction was caused by the intravenous injection of 10 mg/10 ml/kg ovalbumin in physiological NaCl solution. […] The edema volume was calculated from the difference between the values of the two paws. The antiallergic action is in this case expressed as a percentage inhibition of the edema volume of the animals in the test group as compared with control groups undergoing parallel investigation. […] The determination of the ED50 values was performed by linear regression after log transformation of the administered doses, at least three dosage rates being employed.

Another experiment has as its system NMDA-induced death. Nature of the experiment: NMDA test (25 mg/kg i.v.), prevention of NMDA-induced death (neuroprotective efficacy). The format is in vivo, male NMRI mice. Particulars: Mus musculus, po, NMDA 25 mg/kg i.v.; for ED50: 1 h, dose protecting 50% of animals against NMDA-induced death one hour after application; for responders at 25 mg/kg: 25 mg/kg p.o. 1 h before test; for responders at 20 mg/kg: 20 mg/kg p.o. 1 h before test; for responders at 50 mg/kg: 50 mg/kg p.o. 1 h before test.

Where [3] appears, read: 1 h, read-out: Protective action (percentage of animals protected against tonic convulsions).
Setting [4] is: NMDA 40 mg/kg i.v., read-out: Protective action (percentage of animals protected against tonic convulsions).
The mark [5] stands for this setting: read-out: Protective action (percentage of surviving animals).
Setting [6] is: 1 h, dose protecting 50% of animals against tonic convulsions one hour after application, NMDA 40 mg/kg i.v., read-out: ED50.
Where [7] appears, read: 50 mg/kg p.o. 1 h before test, NMDA 40 mg/kg i.v., read-out: Protective action (percentage of animals protected against tonic convulsions).
[8] abbreviates: 5 mg/kg p.o. 1 h before test, NMDA 40 mg/kg i.v., read-out: Protective action (percentage of animals protected against tonic convulsions).

For the compound `CN1C(=O)CN=C(c2ccccc2)c2cc(Cl)ccc21` [diazepam], in experiment [1] (setting [3]), the responders at 5 mg/kg worked out at 25%.

As for `COc1cc2oc(=O)ccc2cc1OCC(O)CN1CCN(c2ccccc2)CC1` (racemic) [Example 18, (±)-7-methoxy-6-[2-hydroxy-3-(4-phenyl-1-piperazinyl)propoxy]-2H-1-benzopyran-2-one], the responders at 25 mg/kg (in experiment [1] (setting [4]); in the experiment with NMDA-induced death (setting [5])) was 100% in each case. Further, the inhibition in vivo at 25 mg/kg in experiment [2] (Rattus norvegicus, po) worked out at 56%. The ED50 in the experiment with NMDA-induced death came out at 6.4 mg/kg.

Regarding `COCCOC(=O)C1=C(C)NC(C)=C(C(=O)OC(C)C)C1c1cccc([N+](=O)[O-])c1` (stereo not drawn) [nimodipin, reference compound], the values for the ED50 (in experiment [1] (setting [6]); with NMDA-induced death) were 25.4 mg/kg and 18.5 mg/kg, respectively. Moreover, the figures for the responders at 20 mg/kg (in experiment [1] (setting [4]); in the experiment on NMDA-induced death (setting [5])) were 25% and 87.5%, respectively.

Turning to `O=C1NC(=O)C(c2ccccc2)(c2ccccc2)N1` [diphenylhydantoin], the responders at 50 mg/kg in experiment [1] (setting [7]) turned out to be 50%.

As for `COc1cc2ccc(=O)oc2cc1OCCCN1CCC(c2ccccc2)CC1` [Example 10, 6-methoxy-7-[3-(4-phenyl-1-piperidinyl)propoxy]-2H-1-benzopyran-2-one], in experiment [1] (setting [8]), the responders at 5 mg/kg came to 25%. Also, the inhibition in vivo at 25 mg/kg in experiment [2] (Rattus norvegicus, po) came to 22%. Moreover, the 50% effective dose (ED50) with NMDA-induced death was 23 mg/kg. In addition, the responders at 25 mg/kg in the experiment with NMDA-induced death (setting [5]) was determined as 75%.

With `COc1ccc2c(c1)[C@]13CCCC[C@@H]1[C@H](C2)N(C)CC3` [dextromethorphan, reference compound], the ED50 stood at 58 mg/kg in experiment [1] (1 h) and 66.7 mg/kg in the experiment on NMDA-induced death. Further, the responders at 100 mg/kg in experiment [1] (setting [3]) was 100%. The responders at 50 mg/kg with NMDA-induced death (setting [5]) worked out at 50%.

As to `COc1ccc(CCN(C)CCCC(C#N)(c2ccc(OC)c(OC)c2)C(C)C)cc1OC` (stereo not drawn) [verapamil, reference compound], in experiment [1] (setting [3]), the responders at 50 mg/kg came out at 50%. Moreover, the 50% effect level in the experiment on NMDA-induced death (ED50) was put at a dose of 17.3 mg/kg. Besides, in the experiment on NMDA-induced death (setting [5]), the responders at 20 mg/kg was 87.5%.

With `Fc1ccc(C(c2ccc(F)cc2)N2CCN(C/C=C/c3ccccc3)CC2)cc1` [flunarizin, reference compound], the responders at 50 mg/kg (in experiment [1] (setting [7]); with NMDA-induced death (setting [5])) was 100% in each case. In addition, the ED50 in the experiment on NMDA-induced death came out at 22.8 mg/kg.

Regarding `COc1cc2oc(=O)ccc2cc1OCCCN1CCN(c2cccc(C(F)(F)F)c2)CC1` [Example 6, 7-methoxy-6-{3-[4-(3-trifluoromethylphenyl)-1-piperazinyl]propoxy}-2H-1-benzopyran-2-one], the results for the responders at 25 mg/kg (in experiment [1] (setting [4]); in the experiment with NMDA-induced death (setting [5])) were 0% and 87.5%, respectively. The ED50 in the experiment with NMDA-induced death was determined as 13.5 mg/kg.

As for `COc1cc2oc(=O)c3c(c2cc1OCCCN1CCC(c2ccccc2)CC1)CCC3` [Example 49, 2,3-dihydro-7-methoxy-8-[3-(4-phenyl-1-piperidinyl)propoxy]cyclopenta[c][1]benzopyran-4(1H)-one], the ED50 in experiment [1] (setting [6]) stood at 4 mg/kg; in the experiment on NMDA-induced death it was 6.8 mg/kg. Also, the responders at 20 mg/kg in experiment [1] (setting [4]) was determined as 87.5%. Further, the inhibition in vivo at 25 mg/kg in experiment [2] (Rattus norvegicus, po) stood at 47%. Also, the responders at 25 mg/kg in the experiment on NMDA-induced death (setting [5]) is 75%.

Consider `CCCC(CCC)C(=O)O` [valproinic acid], for which, in experiment [1] (setting [3]), the responders at 250 mg/kg is 87.5%.

For the compound `COc1cc2ccc(=O)oc2cc1OCC(O)CN1CCC(c2ccccc2)CC1` (racemic) [Example 23, (±)-7-[2-hydroxy-3-(4-phenyl-1-piperidinyl)-propoxy]-6-methoxy-2H-1-benzopyran-2-one], the responders at 5 mg/kg in experiment [1] (setting [8]) came out at 12.5%. Besides, the 50% effect level with NMDA-induced death (ED50) was put at a dose of 28.5 mg/kg. For the same compound, the responders at 100 mg/kg in the experiment with NMDA-induced death (100 mg/kg p.o. 1 h before test, read-out: Protective action (percentage of surviving animals)) amounted to 100%.

Regarding `COc1cc2oc(=O)c3c(c2cc1OCCCN1CCC(c2ccccc2)CC1)CCCC3` [Example 43, 7,8,9,10-tetrahydro-3-methoxy-2-[3-(4-phenyl-1-piperidinyl)propoxy]-6H-dibenzo[b,d]pyran-6-one], the responders at 5 mg/kg in experiment [1] (setting [8]) came to 37.5%. In addition, in experiment [2] (Rattus norvegicus, po), the inhibition in vivo at 25 mg/kg was found to be 19%. In addition, the ED50 in the experiment on NMDA-induced death amounted to 5.5 mg/kg. The responders at 25 mg/kg in the experiment on NMDA-induced death (setting [5]) was 100%.

As to `NC(=O)N1c2ccccc2C=Cc2ccccc21` [carbamazepin], the responders at 50 mg/kg in experiment [1] (setting [7]) came to 75%.

`CCOc1cc2ccc(=O)oc2cc1OCCCN1CCN(c2ccccc2)CC1` [Example 4, 6-ethoxy-7-[3-(4-phenyl-1-piperazinyl)propoxy]-2H-1-benzopyran-2-one]: the responders at 5 mg/kg in experiment [1] (setting [8]) came out at 62.5%. Also, the inhibition in vivo at 25 mg/kg in experiment [2] (Rattus norvegicus, po) turned out to be 79%. In the experiment on NMDA-induced death, this compound showed an ED50 of 1.7 mg/kg. Besides, the responders at 25 mg/kg with NMDA-induced death (setting [5]) was determined as 100%.

`COc1cc2oc(=O)ccc2cc1OCC(O)CN1CCN(c2cccc(Cl)c2)CC1` (racemic) [Example 19, (±)-6-{3-[4-(3-chlorophenyl)-1-piperazinyl]-2-hydroxypropoxy}-7-methoxy-2H-1-benzopyran-2-one]: the responders at 25 mg/kg in experiment [1] (setting [4]) was determined as 87.5%; with NMDA-induced death (setting [5]) it was 100%. In experiment [2] (Rattus norvegicus, po), the inhibition in vivo at 25 mg/kg turned out to be 32%. Also, the ED50 in the experiment with NMDA-induced death amounted to 8.3 mg/kg.

Regarding `CCC1(c2ccccc2)C(=O)NC(=O)NC1=O` [phenobarbital], the responders at 50 mg/kg in experiment [1] (setting [3]) was determined as 62.5%.

Take `COc1cc2ccc(=O)oc2cc1OCCCN1CCC(C(O)(c2ccc(F)cc2)c2ccc(F)cc2)CC1` [Example 14, 7-{3-[4-(bis(4-fluorophenyl)hydroxymethyl)-1-piperidinyl]propoxy}-6-methoxy-2H-1-benzopyran-2-one]: the “Action remains for a period with full effect” value in experiment [2] (25 mg/kg p.o.) came out at 24 h. Besides, the inhibition in vivo at 25 mg/kg in experiment [2] (Rattus norvegicus, po) came to 81%. In experiment [2] (Rattus norvegicus, po, p.o. 1 h before test, linear regression after log transformation of doses), the ED50 is 2.4 mg/kg. Besides, the responders at 25 mg/kg with NMDA-induced death (setting [5]) came out at 37.5%.
